From patent US20120122820A1, “PRODRUGS AND THE USE THEREOF” (Bayer Schering Pharma Aktiengesellschaft, priority 2007, published 2012)
≈ marks a conversion by molar mass, not a printed value. Where a name gives a salt, the structure may show the parent alone.

Experiments:
[1] = Determination of the solubility (24 h shaking at room temperature, ultracentrifugation, HPLC); format: physicochemical; conditions: thermodynamic from solid
Experimental: The test substance is suspended in water or dilute hydrochloric acid (pH 4) [Examples 1-21] or in 5% strength aqueous dextrose solution [Examples 22-40]. This suspension is shaken at room temperature for 24 h. After ultracentrifugation at 224 000 g for 30 min, the supernatant is diluted with DMSO and analyzed by HPLC. A two-point calibration plot of the test compound in DMSO is used for quantification.
Agilent 1100 with DAD (G1315A), quat. pump (G1311A), autosampler CTC HTS PAL, degasser (G1322A) and column thermostat (G1316A); column: Phenomenex Gemini C18, 5 μm, 50 mm×2 mm; temperature: 40° C.; eluent A: water/phosphoric acid pH 2, eluent B: acetonitrile; flow rate: 0.7 ml/min; gradient: 0-0.5 min 85% A, 15% B; ramp 0.5-3 min 10% A, 90% B; 3-3.5 min 10% A, 90% B; ramp 3.5-4 min 85% A, 15% B; 4-5 min 85% A, 15% B.
Agilent 1100 with DAD (G1315A), quat. pump (G1311A), autosampler CTC HTS PAL, degasser (G1322A) and column thermostat (G1316A); column: VDSoptilab Kromasil 100 C18, 3.5 μm, 60 mm×2.1 mm; temperature: 30° C.; eluent A: water+5 ml of perchloric acid/liter, eluent B: acetonitrile; flow rate: 0.75 ml/min; gradient: 0-0.5 min 98% A, 2% B; ramp 0.5-4.5 min 10% A, 90% B; 4.5-6 min 10% A, 90% B; ramp 6.5-6.7 min 98% A, 2% B; 6.7-7.5 min 98% A, 2% B.

[2] = Stability in buffer at various pH values; format: physicochemical
Experimental: 0.3 mg of the test substance is weighed into a 2 ml HPLC vial and 0.5 ml of acetonitrile or acetonitrile/DMSO (9:1) is added. The substance is dissolved by putting the sample vessel in an ultrasonic bath for about 10 seconds. Then 0.5 ml of the respective (buffer) solution is added, and the sample is again treated in the ultrasonic bath.
• pH 4: 1 liter of Millipore water is adjusted to pH 4.0 with 1 N hydrochloric acid; • pH 5: 0.096 mol of citric acid and 0.2 mol of sodium hydroxide ad 1 liter of water; • pH 7.4: 90.0 g of sodium chloride, 13.61 g of potassium dihydrogen phosphate and 83.35 g of 1 N sodium hydroxide solution are made up to 1 liter with water; this solution is then further diluted 1:10 with Millipore water. • pH 8: 0.013 mol of borax and 0.021 mol of hydrochloric acid ad 1 liter of water.
5 μl portions of the sample solution are analyzed by HPLC for their content of unchanged test substance, and of parent substance (A) produced, every hour over a period of 24 hours at 37° C. The percentage areas of the appropriate peaks are used for quantification.
HPLC method for Examples 1-21:
Agilent 1100 with DAD (G1314A), binary pump (G1312A), autosampler (G1329A), column oven (G1316A), thermostat (G1330A); column: Kromasil 100 C18, 60 mm×2.1 mm, 3.5 μm; column temperature: 30° C.; eluent A: water+5 ml of perchloric acid/liter, eluent B: acetonitrile; gradient: 0-1.0 min 98% A, 2% B; 1.0-9.0 min 2% A, 98% B; 9.0-13.0 min 2% A, 98% B; 13.0-13.5 min 98% A, 2% B; 13.5-15.0 min 98% A, 2% B; flow rate: 0.75 ml/min; UV detection: 210 nm.
HPLC method for Examples 22-40:
The ratios of the peak areas (F) at the respective time points in relation to the peak areas at the starting time are shown in Table 3 for representative exemplary embodiments: […]

[3] = aqueous buffer, dilute hydrochloric acid (pH 4)
[4] = saline or isotonic, 5% strength aqueous dextrose solution

## N#Cc1c(N)nc(SCc2csc(-c3ccc(Cl)cc3)n2)c(C#N)c1-c1ccc(OCCOC(=O)CN)cc1 [Example 6, 2-{4-[2-Amino-6-({[2-(4-chlorophenyl)-1,3-thiazol-4-yl]methyl}thio)-3,5-dicyanopyridin-4-yl]-phenoxy}ethyl glycinate dihydrochloride]
[1]; [3]
  solubility at 24 h: 90 µg/mL

## N#Cc1c(N)nc(SCc2csc(-c3ccc(Cl)cc3)n2)c(C#N)c1-c1ccc(OCCOC(=O)[C@@H]2CCCN2)cc1 [Example 9, 2-{4-[2-Amino-6-({[2-(4-chlorophenyl)-1,3-thiazol-4-yl]methyl}thio)-3,5-dicyanopyridin-4-yl]-phenoxy}ethyl L-prolinate hydrochloride]
[1]; [3]
  solubility at 24 h: 50 µg/mL

## Cc1ccc(S(=O)(=O)[O-])cc1.N#Cc1c(N)nc(SCc2csc(-c3ccc(Cl)cc3)n2)c(C#N)c1-c1ccc(OCCOC(=O)[C@@H]2CCC[NH2+]2)cc1 [Example 10, 2-{4-[2-Amino-6-({[2-(4-chlorophenyl)-1,3-thiazol-4-yl]methyl}thio)-3,5-dicyanopyridin-4-yl]-phenoxy}ethyl L-prolinate p-toluenesulfonic acid salt]
[1]; [3]
  solubility at 24 h: 8 µg/mL

## N#Cc1c(N)nc(SCc2csc(-c3ccc(Cl)cc3)n2)c(C#N)c1-c1ccc(OCCOC(=O)[C@@H](N)CO)cc1 [Example 11, 2-{4-[2-Amino-6-({[2-(4-chlorophenyl)-1,3-thiazol-4-yl]methyl}thio)-3,5-dicyanopyridin-4-yl]-phenoxy}ethyl L-serinate hydrochloride]
[1]; [3]
  solubility at 24 h: 70 µg/mL

## N#Cc1c(N)nc(SCc2csc(-c3ccc(Cl)cc3)n2)c(C#N)c1-c1ccc(OCCOC(=O)[C@@H](N)CCCCN)cc1 [Example 14, 2-{4-[2-Amino-6-({[2-(4-chlorophenyl)-1,3-thiazol-4-yl]methyl}thio)-3,5-dicyanopyridin-4-yl]-phenoxy}ethyl L-lysinate dihydrochloride]
[2]; pH 4, 37° C.
  % test substance after 4 h [F(t = 4 h) × 100/F(t = 0 h)]: 100%
  % test substance after 24 h [F(t = 24 h) × 100/F(t = 0 h)]: 100%
[2]; pH 8, 37° C.
  % test substance after 4 h [F(t = 4 h) × 100/F(t = 0 h)]: 96%
  % test substance after 24 h [F(t = 24 h) × 100/F(t = 0 h)]: 76%

## N#Cc1c(N)nc(SCc2csc(-c3ccc(Cl)cc3)n2)c(C#N)c1-c1ccc(OCCOC(=O)[C@@H](N)Cc2ccccc2)cc1 [Example 16, 2-{4-[2-Amino-6-({[2-(4-chlorophenyl)-1,3-thiazol-4-yl]methyl}thio)-3,5-dicyanopyridin-4-yl]-phenoxy}ethyl L-phenylalaninate hydrochloride]
[2]; pH 4, 37° C.
  % test substance after 4 h [F(t = 4 h) × 100/F(t = 0 h)]: 100%
  % test substance after 24 h [F(t = 24 h) × 100/F(t = 0 h)]: 100%
[2]; pH 8, 37° C.
  % test substance after 4 h [F(t = 4 h) × 100/F(t = 0 h)]: 100%
  % test substance after 24 h [F(t = 24 h) × 100/F(t = 0 h)]: 100%

## CS(=O)(=O)O.N#Cc1c(N)nc(SCc2csc(-c3ccc(Cl)cc3)n2)c(C#N)c1-c1ccc(OCCOC(=O)[C@@H](N)Cc2ccccc2)cc1 [Example 18, 2-{4-[2-Amino-6-({[2-(4-chlorophenyl)-1,3-thiazol-4-yl]methyl}thio)-3,5-dicyanopyridin-4-yl]-phenoxy}ethyl L-phenylalaninate methanesulfonic acid salt]
[1]; [3]
  solubility at 24 h: 60 µg/mL

## CC(C)[C@H](N)C(=O)OCCOc1ccc(-c2c(C#N)c(N)nc(SCc3csc(-c4ccc(Cl)cc4)n3)c2C#N)cc1 [Example 23, 2-{4-[2-Amino-6-({[2-(4-chlorophenyl)-1,3-thiazol-4-yl]methyl}thio)-3,5-dicyanopyridin-4-yl]-phenoxy}ethyl L-valinate dihydrochloride]
[2]; pH 4, 37° C.
  % test substance after 4 h [F(t = 4 h) × 100/F(t = 0 h)]: 100%
  % test substance after 24 h [F(t = 24 h) × 100/F(t = 0 h)]: 99%
[2]; pH 7.4, 37° C.
  % test substance after 4 h [F(t = 4 h) × 100/F(t = 0 h)]: 100%
  % test substance after 24 h [F(t = 24 h) × 100/F(t = 0 h)]: 96%

## N#Cc1c(N)nc(SCc2csc(-c3ccc(Cl)cc3)n2)c(C#N)c1-c1ccc(OCCOC(=O)[C@@H](N)CCN)cc1 [Example 24, 2-{4-[2-Amino-6-({[2-(4-chlorophenyl)-1,3-thiazol-4-yl]methyl}thio)-3,5-dicyanopyridin-4-yl]-phenoxy}ethyl (2S)-2,4-diaminobutanoate dihydrochloride]
[2]; pH 4, 37° C.
  % test substance after 4 h [F(t = 4 h) × 100/F(t = 0 h)]: 100%
  % test substance after 24 h [F(t = 24 h) × 100/F(t = 0 h)]: 99%
[2]; pH 5, 37° C.
  % test substance after 4 h [F(t = 4 h) × 100/F(t = 0 h)]: 96%
  % test substance after 24 h [F(t = 24 h) × 100/F(t = 0 h)]: 74%
[1]; [4]
  solubility at 24 h: > 500 µg/mL

## N#Cc1c(N)nc(SCc2csc(-c3ccc(Cl)cc3)n2)c(C#N)c1-c1ccc(OCCOC(=O)CCC(=O)O)cc1 [Example 28, 2-Hydroxy-N,N,N-trimethylethanaminium 4-(2-{4-[2-amino-6-({[2-(4-chlorophenyl)-1,3-thiazol-4-yl]methyl}thio)-3,5-dicyanopyridin-4-yl]phenoxy}ethoxy) 4-oxobutanoate]
[2]; pH 4, 37° C.
  % test substance after 4 h [F(t = 4 h) × 100/F(t = 0 h)]: 100%
  % test substance after 24 h [F(t = 24 h) × 100/F(t = 0 h)]: 100%
[2]; pH 7.4, 37° C.
  % test substance after 4 h [F(t = 4 h) × 100/F(t = 0 h)]: 100%
  % test substance after 24 h [F(t = 24 h) × 100/F(t = 0 h)]: 100%

## N#Cc1c(N)nc(SCc2csc(-c3ccc(Cl)cc3)n2)c(C#N)c1-c1ccc(OCCOC(=O)/C=C\C(=O)O)cc1 [Example 31, 2-Hydroxy-N,N,N-trimethylethanaminium (2Z)-4-(2-{4-[2-amino-6-({[2-(4-chlorophenyl)-1,3-thiazol-4-yl]methyl}thio)-3,5-dicyanopyridin-4-yl]phenoxy}ethoxy)-4-oxobut-2-enoate]
[1]; [4]
  solubility at 24 h: 4 µg/mL (≈ 6.47 µM)

## N#Cc1c(N)nc(SCc2csc(-c3ccc(Cl)cc3)n2)c(C#N)c1-c1ccc(OCCOC(=O)[C@@H](N)Cc2c[nH]cn2)cc1 [Example 33, 2-{4-[2-Amino-6-({[2-(4-chlorophenyl)-1,3-thiazol-4-yl]methyl}thio)-3,5-dicyanopyridin-4-yl]-phenoxy}ethyl L-histidinate dihydrochloride]
[1]; [4]
  solubility at 24 h: 195 µg/mL

## CN(C)CC(=O)Nc1nc(SCc2csc(-c3ccc(Cl)cc3)n2)c(C#N)c(-c2ccc(OCCOC(=O)CN(C)C)cc2)c1C#N [Example 34, 2-(4-{2-({[2-(4-Chlorophenyl)-1,3-thiazol-4-yl]methyl}thio)-3,5-dicyano-6-[(N,N-dimethylglycyl)-amino]pyridin-4-yl}phenoxy)ethyl N,N-dimethylglycinate]
[2]; pH 4, 37° C.
  % test substance after 4 h [F(t = 4 h) × 100/F(t = 0 h)]: 100%
  % test substance after 24 h [F(t = 24 h) × 100/F(t = 0 h)]: 97%
[2]; pH 7.4, 37° C.
  % test substance after 4 h [F(t = 4 h) × 100/F(t = 0 h)]: 100%
  % test substance after 24 h [F(t = 24 h) × 100/F(t = 0 h)]: 97%

## CN(C)CC(=O)Nc1nc(SCc2csc(-c3ccc(Cl)cc3)n2)c(C#N)c(-c2ccc(OCCOC(=O)CN(C)C)cc2)c1C#N [Example 35, 2-(4-{2-({[2-(4-Chlorophenyl)-1,3-thiazol-4-yl]methyl}thio)-3,5-dicyano-6-[(N,N-dimethylglycyl)-amino]pyridin-4-yl}phenoxy)ethyl N,N-dimethylglycinate dihydrochloride]
[2]; pH 4, 37° C., dihydrochloride
  % test substance after 24 h [F(t = 24 h) × 100/F(t = 0 h)]: 100%
[2]; pH 7.4, 37° C., dihydrochloride
  % test substance after 24 h [F(t = 24 h) × 100/F(t = 0 h)]: 98%
